# Assay results taken from PMC4809036, “Antitumor effects of cecropin B-LHRH’ on drug-resistant ovarian and endometrial cancer cells” (BMC Cancer, 2016).
# “Also recorded” adds a separate entry of the source. No end group written: not given here.
# T1: LHRH receptor (LHRHr) (Rattus norvegicus, UniProt P30969)
# T1 chain: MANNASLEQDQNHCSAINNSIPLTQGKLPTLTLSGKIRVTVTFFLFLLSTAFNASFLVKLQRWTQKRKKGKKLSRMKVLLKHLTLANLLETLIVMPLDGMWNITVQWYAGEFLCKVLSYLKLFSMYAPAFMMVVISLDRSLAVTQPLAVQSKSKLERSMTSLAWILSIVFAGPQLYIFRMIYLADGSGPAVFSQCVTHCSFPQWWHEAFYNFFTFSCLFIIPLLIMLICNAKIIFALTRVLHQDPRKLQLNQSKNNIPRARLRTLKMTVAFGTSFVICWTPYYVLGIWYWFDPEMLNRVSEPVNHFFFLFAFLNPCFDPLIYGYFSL
# Assays:
# [1] = tested on: four cancer cell lines (SKOV-3, ES-2, NIH:OVCAR-3, HEC-1A); parameters: method as in ATCC Global Bioresource Center (USA); details: ref ATCC Global Bioresource Center (USA); cited from earlier work
# [2] = tested on: guinea pigs; experiment: Hypersensitization test in guinea pigs; details: n = 6
# Method: Under approved animal research protocol standards, the hypersensitive reaction against CB-LHRH’ (2 mg/mL, equal to 438 μM) was assessed in guinea pigs. According to the Chinese Pharmacopoeia, six animals with an average weight of 250 g (XiFengYang Special Economic Animal Farm, Huzhou, China) were administered an intraperitoneal injection of 0.5 mL of CB-LHRH’ every other day three times, while three additional animals received PBS physiological saline injections. Of the six animals administered CB-LHRH’, three received an intravenous injection of 1 mL CB-LHRH’ at day 15, and the remaining three at day 22. Allergic reactions, such as piloerection, sneezing, lacrimation, dyspnoea, and hyperspasmia, were then monitored for the next 30 min.
# [3] = tested on: Klebsiella pneumoniae; experiment: Antibacterial assay (agar dilution), Klebsiella pneumoniae; format: cell-based; details: Muller Hinton’s agar, 22 h at 35 °C, clinical isolates
# Method: (§1) The antibacterial activity of CB-LHRH’ was evaluated by the agar dilution method. Muller Hinton’s agar medium plates containing serial dilutions of CB-LHRH’ were inoculated with 2 μL of tenfold-diluted 0.5 McF bacteria and incubated for 22 h at 35 °C. The lowest concentration of CB-LHRH’ inhibiting bacterial growth was considered the minimal inhibitory concentration (MIC). Nine clinical strains of the following species were evaluated: Staphylococcus aureus, Klebsiella pneumoniae, Escherichia coli, Enterobacter cloacae, Pseudomonas aeruginosa, and Acinetobacter baumannii.
# [4] = tested on: Escherichia coli; experiment: Antibacterial assay (agar dilution), Escherichia coli; format: cell-based; details: Muller Hinton’s agar, 22 h at 35 °C, clinical isolates
# Method: as §1
# [5] = tested on: Staphylococcus aureus; experiment: Antibacterial assay (agar dilution), Staphylococcus aureus; format: cell-based; details: Muller Hinton’s agar, 22 h at 35 °C, clinical isolates, listed as Cecropin B-LHRH’
# Method: as §1
# [6] = tested on: Enterobacter cloacae; experiment: Antibacterial assay (agar dilution), Enterobacter cloacae; format: cell-based; details: Muller Hinton’s agar, 22 h at 35 °C, clinical isolates
# Method: as §1
# [7] = tested on: Pseudomonas aeruginosa; experiment: Antibacterial assay (agar dilution), Pseudomonas aeruginosa; format: cell-based; details: Muller Hinton’s agar, 22 h at 35 °C, clinical isolates, listed as Cecropin B-LHRH’
# Method: as §1
# [8] = tested on: nude mice; experiment: General toxicity (survival, body weight) in ES-2 xenograft mice; format: in vivo, BALB/c-nu mice; details: for surviving mice: intra-tumoral, twice daily, thirteen days later, n = 10 (PBS: 9 survived)
# Method: (§2) Five- to six-week-old female (15–20 g) athymic nude mice (BALB/c-nu) were obtained from Shanghai SLAC Laboratory Animal Corporation, China. The animals were housed in sterile cages under laminar flow hoods in a temperature controlled room with a 12-hour light/12-hour dark cycle, and fed autoclaved chow and water ad libitum. All experiments were carried out in accordance with the guidelines for the welfare ethics of experimental animals. All the animal-related procedures were approved by the Animal Ethical Committee of Zhejiang University.
# (§3) Cultured ES-2 ovarian cancer cells were resuspended at 1 × 10^7/ml and inoculated subcutaneously into the nude mouse armpit. When tumors reached 60 mm^3, they were extracted, cut into pieces of about 2 mm^3, and inoculated subcutaneously into the nude mouse armpit. When the tumors reached an average volume of about 100 mm^3, the mice were randomly divided into five groups (n = 10). Groups 1–3 received intra-tumor injection of CB-LHRH’ twice daily at 12.5, 25 or 50 mg/kg^.d, respectively.
# General toxicity was evaluated based on body weight, measured weekly.
# [9] = tested on: Acinetobacter baumannii; experiment: Antibacterial assay (agar dilution), Acinetobacter baumannii; format: cell-based; details: Muller Hinton’s agar, 22 h at 35 °C, clinical isolates
# Method: as §1
# [10] = tested on: ES-2 tumors xenografted into nude mice; experiment: ES-2 xenograft study in nude mice; format: in vivo, BALB/c-nu mice
# Method: as §2, §3
# Tumor volumes were assessed every 3 d as 0.5 × length × width^2 (where length is the longest diameter across the tumor and width the corresponding perpendicular diameter as measured by calipers). On day 13, 4 h after the last dose, mice were sacrificed, and tumors excised and weighed; tumor growth inhibition rate was derived as (1-tumor weight treated/tumor weight control) × 100 %.
# Anti-tumor activity was evaluated as relative growth of tumor volume (T/C, value), the mean relative tumor volume (RTV) for the treatment group divided by the mean RTV for the control group, as follows: T/C (%) = TRTV/CRTV X 100 %. RTV = Vt/V0, where Vt is the volume on any given day, and V0 the volume at treatment start.
# [11] = molecular target: T1, LHRH receptor (LHRHr); experiment: radioligand saturation binding (Scatchard), rat pituitary membranes
molecule,measurement,setting,value
COc1cccc2c1C(=O)c1c(O)c3c(c(O)c1C2=O)C[C@@](O)(C(=O)CO)C[C@@H]3O[C@H]1C[C@H](N)[C@H](O)[C@H](C)O1 [doxorubicin],resistance of the cell lines to the drug,[1],resistant
KWKVFKKIEKMGRNIRNGIVKAGPAIAVLGEAKALSYGLRPG [CB-LHRH’],hypersensitivity / anaphylaxis,"[2]; 0.5 mL of 2 mg/mL i.p. every other day three times, then 1 mL i.v. at day 15 or 22, monitored 30 min, data not shown",no hypersensitivity; also recorded: No anaphylaxis occurred in any of the six guinea pigs; also recorded: no hypersensitive reactions in guinea pigs
same,survival,[2]; 0.5 mL of 2 mg/ml i.p. every other day three times,survived the 15 days of treatment
same,MIC,[3],3.86 to 7.72 µM
same,MIC,[4],3.86 to 7.72 µM
same,MIC,[5],>15.44 µM
same,MIC,[6],3.86 to 7.72 µM
same,MIC,[7],> = 15.44 μM
same,surviving mice,[8]; CB-LHRH’ 12.5 mg/kg.d,8
same,surviving mice,[8]; CB-LHRH’ 25 mg/kg.d,9
same,surviving mice,[8]; CB-LHRH’ 50 mg/kg.d,7
same,animal weights,"[8]; CB-LHRH’ intra-tumoral, by day 13",no differences were found in animal weights
same,MIC,[9],1.93 to 7.72 µM
N.N.[Cl][Pt][Cl] [Cisplatin],"Tumor Volume, d 1","[10]; cisplatin 0.67 mg/kg.d (2 mg/kg once every 3 days), d 1, Mean ± SD, n = 10 per group",343.91 ± 123.06 mm^3
same,"Tumor Volume, d 13","[10]; cisplatin 0.67 mg/kg.d (2 mg/kg once every 3 days), d 13, Mean ± SD, ** P < 0.01 vs PBS",913.16 ± 142.64** mm^3
same,T/C,"[10]; cisplatin 0.67 mg/kg.d (2 mg/kg once every 3 days), d 13, RTV treated/RTV PBS control, ≤60 % = active",42%
same,Tumor Weight,"[10]; cisplatin 2 mg/kg once every 3 days, d 13, Mean ± SD, **P < 0.01 vs PBS",1.09 ± 0.25 ** g
same,resistance of the cell lines to the drug,[1],resistant
diphtheria toxin,resistance of the cell lines to the drug,[1],resistant
KWKVFKKIEKMGRNIRNGIVKAGPAIAVLGEAKALSYGLRPG (also: 125I-labelled) [Cecropin B-LHRH' (CB-LHRH')],Kd,[11],0.253 nM
